Assay results as given in patent publication US6596288B2, “Use of sterols as active ingredient in a cosmetic composition against adiposity” (Codif International SA, priority 2000, dated 2003).

Columns and labels:
human adipocytes [1] = assay: incorporation of [2-14C]-acetate into lipids (LIPOGENESIS) by isolated human adipocytes; assay type: cell-based; details: for inhibition at 10 µM / inhibition at 100 µM / inhibition at 1000 µM: Homo sapiens, Adipocyte
Procedure: (§1) In these experiments, adipocytes were isolated from abdominal restorative surgeries sampled in women. The experiment took place the day of the sampling. Fragments of adipose tissues were incubated for 30 minutes at 37° C. in the presence of collagenase, then the isolated adipocytes were washed and taken up in medium MEM buffered with bicarbonate, in the presence of antibiotics (penicillin/streptomycin), glutamine (2 mM), and delipidated bovine serum albumin (0.5%).
The tests concerning the effect on lipogenesis were then conducted in the following manner.
Adipocytes (90 μl of ¼ diluted suspension) were incubated for 1 hour, either with a control medium (4 hours), with molecules known to inhibit the neosynthesis of fatty acids (EPA), as for example […], or with previously diluted extracts (added under 100 μl).
As to the sterols and to the lipidic extracts of plants or algae, they were diluted in mineral oil which has been verified to not inhibit incorporation or extraction of adipocyte lipids. Then, 10 μl of [2^14C]-acetate, 50 μCi/ml, were added, and the samples were either cultivated at 37° C. in the presence of 5% CO2 for 4 additional hours, or immediately frozen at −80° C. (control t0).
At the times indicated, the samples were frozen at −80° C. The lipids were then extracted according to the method of Bligh and Dyer (extraction methanol/chloroform/water), then dried under nitrogen. The radioactivity incorporated was then counted by liquid scintillation.

human adipocytes [2] = assay: liberation of NEFA (non-esterified fatty acids) (LIPOLYSIS) by isolated human adipocytes; assay type: cell-based; details: for % Control (NEFA liberation) / Average of the NEFA: 2 hours at 37° C.
Procedure: as §1
As to the tests concerning the effect on lipolysis, they were conducted in the following manner. Adipocytes (540 μl of suspension) were incubated for 2 hours in a water bath at 37° C., with agitation, in the presence of 60 μl of different sterols. The experiments were carried out in triplicate.
Then, the non-esterified fatty acids (AGNE) released by the adipocytes were determined in the sub-adipocyte media. The values obtained were treated by an analysis of variance (ANOVA) by means of the multiple comparison test of Dunnett. The values were considered as significant when the probability p was less than the threshold of significance 0.05.

[3] = 0.01 mM (10^−5 M), absence of insulin, 4 h
[4] = 0.01 mM (10^−5 M), presence of insulin (1 nM), 4 h
[5] = 0.1 mM (10^−4 M), absence of insulin, 4 h
[6] = 0.1 mM (10^−4 M), presence of insulin (1 nM), 4 h
[7] = 1 mM (10^−3 M), absence of insulin, 4 h
[8] = 1 mM (10^−3 M), presence of insulin (1 nM), 4 h

## CC(C)[C@H](C)CC[C@@H](C)[C@H]1CC[C@H]2[C@@H]3CC=C4C[C@@H](O)CC[C@]4(C)[C@H]3CC[C@]12C [Campesterol, campesterol]
Human adipocytes [1]
  incorporation of acetate by isolated human adipocytes (conclusion): inhibit the incorporation of acetate
Human adipocytes [1]; [3]
  % control (incorporation of acetate): 92%
  Average of cpm (incorporation of acetate): 191817 cpm
  cpm - t0 test (incorporation of acetate): 185352 cpm
Human adipocytes [1]; [4]
  % control (incorporation of acetate): 101%
  % inhibition (incorporation of acetate): no significant effect
  Average of cpm (incorporation of acetate): 243051 cpm
  cpm - t0 test (incorporation of acetate): 236586 cpm
Human adipocytes [1]; [5]
  % control (incorporation of acetate): 90%
  Average of cpm (incorporation of acetate): 188278 cpm
  cpm - t0 test (incorporation of acetate): 181813 cpm
Human adipocytes [1]; [6]
  % control (incorporation of acetate): 85%
  Average of cpm (incorporation of acetate): 206655 cpm
  cpm - t0 test (incorporation of acetate): 200190 cpm
Human adipocytes [1]; [7]
  % control (incorporation of acetate): 74%
  Average of cpm (incorporation of acetate): 156448 cpm
  cpm - t0 test (incorporation of acetate): 149983 cpm
Human adipocytes [1]; [8]
  % control (incorporation of acetate): 48%
  Average of cpm (incorporation of acetate): 119960 cpm
  cpm - t0 test (incorporation of acetate): 113495 cpm
Human adipocytes [1]; 4 h, 0.01 mM (10^−5 M), absence of insulin
  inhibition at 10 µM: 8%
Human adipocytes [1]; 4 h, 0.01 mM (10^−5 M), presence of insulin (1 nM)
  inhibition at 10 µM: 0%
Human adipocytes [1]; 4 h, 0.1 mM (10^−4 M), absence of insulin
  inhibition at 100 µM: 10%
Human adipocytes [1]; 4 h, 0.1 mM (10^−4 M), presence of insulin (1 nM)
  inhibition at 100 µM: 15%
Human adipocytes [1]; 4 h, 1 mM (10^−3 M), absence of insulin
  inhibition at 1000 µM: 26%
Human adipocytes [1]; 4 h, 1 mM (10^−3 M), presence of insulin (1 nM)
  inhibition at 1000 µM: 52%
Human adipocytes [2]; 10^−2 M
  % Control (NEFA liberation): 118%
  Average of the NEFA: 167 µM
Human adipocytes [2]; 10^−3 M (1 mM)
  % Control (NEFA liberation): 98%
  Average of the NEFA: 138 µM
Human adipocytes [2]; 10^−4 M
  % Control (NEFA liberation): 109%
  Average of the NEFA: 155 µM
Human adipocytes [2]; 10^−5 M
  % Control (NEFA liberation): 99%
  Average of the NEFA: 140 µM
Human adipocytes [2]; 10^−6 M (1 μM)
  % Control (NEFA liberation): 117%
  Average of the NEFA: 166 µM
Human adipocytes [2]; 10^−6 M, 10^−5 M, 10^−4 M, 10^−3 M and 10^−2 M
  stimulation of lipolysis: did not stimulate lipolysis
